Results taken from article PMC8041433 (Environmental Health Perspectives, 2021).
“And” between values parts separate entries of the source, which are not always exact repeats. Equal entries are not always repeated. Structures can show the parent of a compound that is named as a salt. Where two headings read alike, the source gives them in different places.

Experiments:
recombinant human AChE [1] = molecular target: T1, recombinant human AChE (Homo sapiens, UniProt P22303); experiment: biochemical; conditions: IC50 (uM)
T1 sequence (P22303 32-614): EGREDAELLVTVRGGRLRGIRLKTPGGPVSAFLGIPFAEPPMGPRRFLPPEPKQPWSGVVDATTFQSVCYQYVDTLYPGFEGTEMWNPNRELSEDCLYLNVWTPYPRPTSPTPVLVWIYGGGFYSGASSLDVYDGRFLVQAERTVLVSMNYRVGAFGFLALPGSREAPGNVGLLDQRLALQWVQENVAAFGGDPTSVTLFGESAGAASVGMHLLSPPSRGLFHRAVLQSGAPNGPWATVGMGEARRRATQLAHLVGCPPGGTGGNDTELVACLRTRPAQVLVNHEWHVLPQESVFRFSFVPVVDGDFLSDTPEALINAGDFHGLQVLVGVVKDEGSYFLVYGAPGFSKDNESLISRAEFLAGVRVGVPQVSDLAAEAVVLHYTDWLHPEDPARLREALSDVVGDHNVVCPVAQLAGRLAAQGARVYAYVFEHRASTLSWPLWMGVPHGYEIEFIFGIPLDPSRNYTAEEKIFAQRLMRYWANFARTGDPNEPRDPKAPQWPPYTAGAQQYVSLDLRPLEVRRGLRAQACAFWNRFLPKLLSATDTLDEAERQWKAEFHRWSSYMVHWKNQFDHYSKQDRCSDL

recombinant human AChE [2] = molecular target: T1, recombinant human AChE
recombinant human AChE [3] = molecular target: T1, recombinant human AChE; experiment: biochemical
AChE in SH-SY5Y cells = AChE in SH-SY5Y cells (Homo sapiens, UniProt P22303); experiment: cell-based
Chain of AChE in SH-SY5Y cells (P22303 32-614): as above

recombinant human AChE [4] = molecular target: T1, recombinant human AChE; experiment: biochemical; type: biochemical; conditions: for AC50: AC50 (uM)
Throughout, for IR or R: key: Reversible (R); Irreversible (IR); ND, not detected in enzyme-based AChE inhibition assay from current study.

| SMILES | IC50 (recombinant human AChE [1]) [µM] | CC-v2 (curve classes) (recombinant human AChE [2]) | Efficacy (recombinant human AChE [2]) | CC-v2 (curve classes) (recombinant human AChE [3]) | Efficacy (recombinant human AChE [3]) | IC50 (recombinant human AChE [3]; IC50 (uM)) [µM] | IC50 (AChE in SH-SY5Y cells; IC50 (uM)) | AC50 (recombinant human AChE [4]) | reversibility of AChE inhibition (result in words) (recombinant human AChE [4]) | CC-v2 (curve classes) (AChE in SH-SY5Y cells) | IR or R (recombinant human AChE [4]) | IC50 (recombinant human AChE [2]) [µM] | IC50 (recombinant human AChE [3]; read-out: IC50) [µM] | IC50 (AChE in SH-SY5Y cells; read-out: IC50) | Efficacy (recombinant human AChE [4]) |
| --- | --- | --- | --- | --- | --- | --- | --- | --- | --- | --- | --- | --- | --- | --- | --- |
| O=C(O)CC[N+](=O)[O-] [3-Nitropropionic acid] | 71 | -2.2 | -41.028 | -2.1 | -85.687 | 28.3 | 8.94 µM and 11.2 µM and 2.24 µM | – | – | – | – | – | – | – | – |
| COc1cc2nc(N(C)CCCNC(=O)C3CCCO3)nc(N)c2cc1OC (stereo not shown) [Alfuzosin hydrochloride, reference compound] | – | – | – | – | – | – | – | 14.7 µM (3×) and 13.1 µM and 7.35 µM and 9.25 µM and 10.4 µM (2×) | – | – | – | – | – | – | – |
| CCOP(=O)(OCC)Oc1nc(Cl)c(Cl)cc1Cl [Chlorpyrifos oxon, reference compound] | – | -1.1 | -96.78 | -1.1 | -95.546 | – | – | – | irreversibility | -1.1 | – | – | – | – | – |
| CNC(=O)Oc1cccc(N=CN(C)C)c1 [Formetanate hydrochloride] | – | – | – | – | – | – | – | 63.1 µM and 56.2 µM (2×) and 50.1 µM and 70.7 µM and 44.6 µM and 39.8 µM | – | – | – | – | – | – | – |
| Nc1c2c(nc3ccccc13)CCCC2O.O=C(O)/C=C\C(=O)O (stereo not shown) [Hydroxytacrine maleate, reference compound] | – | -2.1 | -93.06 | -1.1 | -95.079 | – | – | – | – | -1.1 | R | – | – | – | – |
| CCC1(c2cccc(O)c2)CCCCN(C)C1 (stereo not shown) [Meptazinol hydrochloride, reference compound] | – | – | – | – | – | – | – | 4.64 µM and 9.25 µM and 3.68 µM and 5.2 µM and 8.25 µM and 5.84 µM and 6.55 µM | – | – | – | – | – | – | – |
| CC[C@@H](CO)NC(=O)[C@@H]1C=C2c3cccc4c3c(cn4C)C[C@H]2N(C)C1 [Methysergide] | – | 4 | -23.381 | -1.1 | -98.745 | 4.36 | 0.389 µM and 0.245 µM and 2.45 µM | – | – | -1.1 | – | – | – | – | – |
| CNC(=O)/C=C(\C)OP(=O)(OC)OC [Monocrotophos] | – | 4 | -13.186 | -2.2 | -46.284 | 63.3 | 39.9 µM and 35.6 µM | – | – | -2.1 | – | – | – | – | – |
| Cc1nccn1CC1CCc2c(c3ccccc3n2C)C1=O (stereo not shown) [Ondansetron] | – | 4 | 0 | 4 | -23.749 | – | 30.9 µM and 34.7 µM and 38.9 µM | – | – | – | – | – | – | – | – |
| CCOP(=O)(OCC)Oc1ccc([N+](=O)[O-])cc1 [Paraoxon] | – | -1.1 | – | -1.1 | – | – | – | – | – | -1.1 | – | – | – | – | – |
| CCCCCC1Nc2cc(C(F)(F)F)c(S(N)(=O)=O)cc2S(=O)(=O)N1 (stereo not shown) [Penflutizide] | – | 4 | -21.532 | -2.2 | -58.761 | 21.9 | 15.5 µM and 13.8 µM | – | – | -2.1 | – | – | – | – | – |
| CCOP(=S)(OCC)SCSCC [Phorate] | – | 4 | 0 | 4 | -23.652 | – | 63.3 µM and 71 µM | – | – | -2.1 | – | – | – | – | – |
| Nc1c(NC/C=C\COc2cc(CN3CCCCC3)ccn2)c(=O)c1=O [Pibutidine] | – | 4 | 0 | -2.2 | -32.846 | 15.1 | 13.5 µM and 15.1 µM | – | – | -2.1 | – | – | – | – | – |
| Cc1nc2ccccn2c(=O)c1CCN1CCC(C(=O)c2ccc(F)cc2)CC1 [Pirenperone] | – | 4 | 0 | -2.4 | -31.06 | 38.9 | 17.4 µM and 24.5 µM | – | – | -2.1 | – | – | – | – | – |
| O=S(=O)([O-])SSS(=O)(=O)[O-].[K+].[K+] [Potassium tetrathionate] | – | -2.1 | -82.524 | -2.2 | -73.38 | – | – | – | – | -2.1 | – | 71 | 71 | 71 µM and 79.6 µM | – |
| CCCN[C@H]1CCc2nc(N)sc2C1 [Pramipexole dihydrochloride monohydrate] | – | 4 | -16.414 | 4 | -20.242 | – | – | – | – | -2.1 | – | – | – | – | – |
| COc1cc2nc(N3CCN(C(=O)c4ccco4)CC3)nc(N)c2cc1OC [Prazosin] | – | – | 0 | – | -14.406 | – | 15.1 µM and 16.9 µM and 9.52 µM | – | – | – | – | – | – | – | – |
| CC(C)Nc1nc(Cl)nc(NC(C)C)n1 [Propazine] | – | 4 | 0 | -2.2 and 4 | – | 71 | 31.7 µM and 25.2 µM and 28.3 µM | – | – | -2.1 and 4 | – | – | – | – | – |
| COCCCN1CCC(NC(=O)c2cc(Cl)c(N)c3c2OCC3)CC1 [Prucalopride] | – | 4 | 0 | -2.4 | -37.421 | – | 17.4 µM | – | – | -2.1 | – | – | – | – | – |

| SMILES | IC50 (recombinant human AChE [1]) [µM] | CC-v2 (curve classes) (recombinant human AChE [2]) | Efficacy (recombinant human AChE [2]) | CC-v2 (curve classes) (recombinant human AChE [3]) | Efficacy (recombinant human AChE [3]) | IC50 (recombinant human AChE [3]; IC50 (uM)) [µM] | IC50 (AChE in SH-SY5Y cells; IC50 (uM)) | AC50 (recombinant human AChE [4]) | reversibility of AChE inhibition (result in words) (recombinant human AChE [4]) | CC-v2 (curve classes) (AChE in SH-SY5Y cells) | IR or R (recombinant human AChE [4]) | IC50 (recombinant human AChE [2]) [µM] | IC50 (recombinant human AChE [3]; read-out: IC50) [µM] | IC50 (AChE in SH-SY5Y cells; read-out: IC50) | Efficacy (recombinant human AChE [4]) |
| --- | --- | --- | --- | --- | --- | --- | --- | --- | --- | --- | --- | --- | --- | --- | --- |
| CN1CCCN=C1/C=C/c1cccs1.O=C(O)C(O)C(O)C(=O)O [Pyrantel tartrate] | – | 4 | 0 | -2.4 | -36.527 | – | – | – | – | -2.1 | – | – | 38.9 | 30.9 µM and 27.5 µM and 15.5 µM | – |
| COCCCOc1ccnc(C[S+]([O-])c2nc3ccccc3[nH]2)c1C (stereo not shown) [Rabeprazole sodium] | – | 1.1 | 92.667 | 4 | -15.052 | – | 63.1 µM and 70.7 µM | – | – | -2.1 and -2.2 | – | – | – | – | – |
| Cc1nc2n(c(=O)c1CCN1CCC(c3noc4cc(F)ccc34)CC1)CCCC2 [Risperidone] | – | 4 | 0 | 4 | -13.373 | – | – | – | – | -1.1 and -2.1 | – | – | – | – | – |
| CCCN(CCc1cccs1)[C@H]1CCc2c(O)cccc2C1 [Rotigotine] | – | 4 | 0 | -2.2 | -40.728 | 34.7 | 15.5 µM and 13.8 µM | – | – | -2.1 | – | – | – | – | – |
| C[n+]1cc2c3c(ccc2c2ccc4cc5c(cc4c21)OCO5)OCO3 [Sanguinarine] | – | 4 | -7.894 | -2.2 | -68.744 | 16.9 | 15.1 µM and 12 µM and 10.7 µM | – | – | -2.1 | – | – | – | – | – |
| CCN(CC)CCNC(=O)c1c(C)[nH]c(/C=C2\C(=O)Nc3ccc(F)cc32)c1C [Sunitinib malate, reference compound] | – | -2.2 | -53.539 | -1.1 | -78.177 | – | – | – | – | -1.1 | R | – | – | – | – |
| COc1cc2c(N3CCN(C(=O)Nc4ccc(OC(C)C)cc4)CC3)ncnc2cc1OCCCN1CCCCC1 [Tandutinib, reference compound] | – | 4 | -26.796 | -2.1 | -82.501 | – | – | – | – | -2.1 | R | – | – | – | -90.305 |
| COc1cc2nc(N3CCN(C(=O)C4CCCO4)CC3)nc(N)c2cc1OC (stereo not shown) [Terazosin hydrochloride] | – | 4 | 0 | -2.2 | -49.646 | 38.9 | 30.9 µM and 27.5 µM | – | – | – | – | – | – | – | – |
| CCCCCCCCCCCCCC[n+]1ccccc1 [Tetradecylpyridinium bromide] | – | 4 | 0 | -2.1 | -102.568 | 56.4 | 31.7 µM and 39.9 µM | – | – | -1.1 and -2.1 | – | – | – | – | – |
| CN(C)C(=S)SC(=S)N(C)C [Tetramethylthiuram monosulfide] | – | 4 | – | 4 | – | – | 31.7 µM and 72.8 µM and 63.3 µM and 56.4 µM | – | – | – | – | – | – | – | – |
| CN(C)C(=S)SSC(=S)N(C)C [Thiram] | – | 4 | – | 4 | – | – | 38.9 µM and 88.1 µM and 78.5 µM and 89.4 µM and 71 µM | – | – | – | – | – | – | – | – |
| COc1cc(C(=O)NCc2ccc(OCCN(C)C)cc2)cc(OC)c1OC [Trimethobenzamide hydrochloride] | – | 4 | -14.276 | -1.1 | -75.922 | – | – | – | – | -2.1 and -1.1 | – | – | – | – | – |
| O=P(Oc1ccccc1)(Oc1ccccc1)Oc1ccccc1 [Triphenyl phosphate] | – | -2.1 | – | -1.1 | – | – | 20 µM and 19.9 µM and 22.3 µM and 35.6 µM and 31.6 µM and 28.1 µM and 25.2 µM | – | – | -1.1 and -2.1 | – | – | – | – | – |
| COP(=O)(OC)O/C(=C\Cl)c1cc(Cl)c(Cl)cc1Cl [Z-Tetrachlorvinphos] | – | 4 | 0 | -2.4 | -30.752 | 71 | 63.3 µM and 79.6 µM | – | – | -2.2 | – | – | – | 44.8 µM | – |
| COc1cc(N)c(Cl)cc1C(=O)NC1CN2CCC1CC2.Cl (stereo not shown) [Zacopride hydrochloride] | – | 4 | 0 | 4 | 0 | – | – | – | – | -2.2 | – | – | – | – | – |
| O=C(CCC1CCN(Cc2ccccc2)CC1)c1ccc2c(c1)NCCCC2.O=C(O)/C=C/C(=O)O [Zanapezil fumerate, reference compound] | – | -1.1 | -97.158 | -1.1 | -97.056 | – | – | – | – | -1.1 | R | – | – | – | – |
| O=C(O)/C=C\C(=O)O.O=C(O)/C=C\C(=O)O.c1cc(CN2CCCCC2)cc(OCCCNc2nc3ccccc3s2)c1 [Zolantidine dimaleate] | – | 4 | 0 | -2.1 | -71.468 | – | – | – | – | -2.1 | – | – | 27.5 | 13.8 µM and 15.5 µM | – |
| CNC(=O)Oc1cccc2ccccc12 [carbaryl] | – | – | – | – | – | – | – | – | significant IC50 difference at 60 min | – | – | – | – | – | – |
